Source: patent US10457703B2, “Bile acid derivatives as FXR/TGR5 agonists and methods of use thereof” (ENANTA PHARMACEUTICALS, INC., priority 2015, dated 2019)

Molecular target: human FXR (NR1H4) (Homo sapiens (Human), UniProt Q96RI1)
Assay: Human FXR (NR1H4) Assay (Gal4 promoter driven luciferase reporter, Indigo Bioscience kit);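 as to Efficacy (%): 100% equals the efficacy of CDCA; efficacy normalized to CDCA set as 100%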
Assay type: cell-based
Conditions: for EC50: Human FXR (NR1H4) Assay, potency ranges; for Emax: read-out: Efficacy (%)
Procedure, shortened: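 CHO reporter cells expressing human FXR with an FXR-responsive luciferase reporter, treated with compound doses at 0.2% DMSO. Incubation lasted 22 h at 37 °C before luciferase detection reagent was added. Luminescence was then read.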

Sequence of human FXR (NR1H4) (Q96RI1 whole entry, the tested form may be a part): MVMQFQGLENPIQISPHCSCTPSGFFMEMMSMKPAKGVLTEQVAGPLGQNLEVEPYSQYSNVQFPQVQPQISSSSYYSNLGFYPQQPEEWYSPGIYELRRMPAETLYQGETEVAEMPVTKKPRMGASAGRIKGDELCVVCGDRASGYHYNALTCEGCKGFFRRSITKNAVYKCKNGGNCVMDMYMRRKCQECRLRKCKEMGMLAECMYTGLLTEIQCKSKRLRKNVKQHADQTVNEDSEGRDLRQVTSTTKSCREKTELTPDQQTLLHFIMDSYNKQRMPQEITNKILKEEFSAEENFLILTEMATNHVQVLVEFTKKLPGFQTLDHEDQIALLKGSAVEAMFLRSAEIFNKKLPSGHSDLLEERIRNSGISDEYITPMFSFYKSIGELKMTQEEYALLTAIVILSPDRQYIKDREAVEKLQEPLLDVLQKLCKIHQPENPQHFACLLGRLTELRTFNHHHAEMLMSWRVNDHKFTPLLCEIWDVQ

`CC[C@H]1[C@@H](O)[C@@H]2[C@H](CC[C@]3(C)[C@@H]([C@H](C)CCOC(=O)NS(=O)(=O)c4ccc(C(F)(F)F)cc4)CC[C@@H]23)[C@@]2(C)CC[C@@H](O)C[C@@H]12` [Example 79] showed an EC50 of less than 100 nM and an Emax of 376%.
`CC[C@H]1[C@@H](O)[C@@H]2[C@H](CC[C@]3(C)[C@@H]([C@H](C)CCOC(=O)NS(=O)(=O)c4ccccc4C(F)(F)F)CC[C@@H]23)[C@@]2(C)CC[C@@H](O)C[C@@H]12` [Example 80] showed an EC50 of 100 to 1000 nM and an Emax of 363%.
Work on `CC[C@H]1[C@@H](O)[C@@H]2[C@H](CC[C@]3(C)[C@@H]([C@H](C)CCOC(=O)NS(=O)(=O)c4cccc5ccccc45)CC[C@@H]23)[C@@]2(C)CC[C@@H](O)C[C@@H]12` [Example 81] yielded an EC50 of less than 100 nM and an Emax of 372%.
`CC[C@H]1[C@@H](O)[C@@H]2[C@H](CC[C@]3(C)[C@@H]([C@H](C)CCOC(=O)NS(=O)(=O)c4cnn(C)c4)CC[C@@H]23)[C@@]2(C)CC[C@@H](O)C[C@@H]12` [Example 82] showed an EC50 of 1000 to 10000 nM and an Emax of 294%.
Molecule `CC[C@H]1[C@@H](O)[C@@H]2[C@H](CC[C@]3(C)[C@@H]([C@H](C)CCOC(=O)NS(=O)(=O)CCOC)CC[C@@H]23)[C@@]2(C)CC[C@@H](O)C[C@@H]12` [Example 83] has an EC50 of 100 to 1000 nM and an Emax of 275%.
Work on `CC[C@H]1[C@@H](O)[C@@H]2[C@H](CC[C@]3(C)[C@@H]([C@H](C)CCOC(=O)NS(=O)(=O)c4ccccc4OC)CC[C@@H]23)[C@@]2(C)CC[C@@H](O)C[C@@H]12` [Example 84] yielded an EC50 of less than 100 nM and an Emax of 270%.
With `CC[C@H]1[C@@H](O)[C@@H]2[C@H](CC[C@]3(C)[C@@H]([C@H](C)CCOC(=O)NS(=O)(=O)c4ccccc4C(C)(C)C)CC[C@@H]23)[C@@]2(C)CC[C@@H](O)C[C@@H]12` [Example 85] the EC50 was less than 100 nM and the Emax was 240%.
`CC[C@H]1[C@@H](O)[C@@H]2[C@H](CC[C@]3(C)[C@@H]([C@H](C)CCOC(=O)NS(=O)(=O)c4cccc(OC)c4)CC[C@@H]23)[C@@]2(C)CC[C@@H](O)C[C@@H]12` [Example 86] was tested, and the EC50 was 100 to 1000 nM and the Emax was 288%.
`CC[C@H]1[C@@H](O)[C@@H]2[C@H](CC[C@]3(C)[C@@H]([C@H](C)CCOC(=O)NS(=O)(=O)c4ccc(OC)c(OC)c4)CC[C@@H]23)[C@@]2(C)CC[C@@H](O)C[C@@H]12` [Example 87] was tested, and the EC50 was 100 to 1000 nM and the Emax was 274%.
Work on `CC[C@H]1[C@@H](O)[C@@H]2[C@H](CC[C@]3(C)[C@@H]([C@H](C)CCOC(=O)NS(=O)(=O)c4ccc5ccccc5c4)CC[C@@H]23)[C@@]2(C)CC[C@@H](O)C[C@@H]12` [Example 88] yielded an EC50 of less than 100 nM and an Emax of 236%.
`CC[C@H]1[C@@H](O)[C@@H]2[C@H](CC[C@]3(C)[C@@H]([C@H](C)CCOC(=O)NS(=O)(=O)c4ccc5c(c4)CCCC5)CC[C@@H]23)[C@@]2(C)CC[C@@H](O)C[C@@H]12` [Example 89] gave an EC50 of less than 100 nM and an Emax of 278%.
In the case of `CC[C@H]1[C@@H](O)[C@@H]2[C@H](CC[C@]3(C)[C@@H]([C@H](C)CCOC(=O)NS(=O)(=O)c4ccc5c(c4)OCCO5)CC[C@@H]23)[C@@]2(C)CC[C@@H](O)C[C@@H]12` [Example 90], the EC50 is reported as less than 100 nM and the Emax is reported as 225%.
With `CC[C@H]1[C@@H](O)[C@@H]2[C@H](CC[C@]3(C)[C@@H]([C@H](C)CCOC(=O)NS(=O)(=O)CCc4cccc(Cl)c4)CC[C@@H]23)[C@@]2(C)CC[C@@H](O)C[C@@H]12` [Example 91] the EC50 was 100 to 1000 nM and the Emax was 313%.
`CC[C@H]1[C@@H](O)[C@@H]2[C@H](CC[C@]3(C)[C@@H]([C@H](C)CCOC(=O)NS(=O)(=O)CCC(=O)OC)CC[C@@H]23)[C@@]2(C)CC[C@@H](O)C[C@@H]12` [Example 92] gave an EC50 of 1000 to 10000 nM and an Emax of 218%.
With `CC[C@H]1[C@@H](O)[C@@H]2[C@H](CC[C@]3(C)[C@@H]([C@H](C)CCOC(=O)NS(=O)(=O)c4ccc5c(c4)OCO5)CC[C@@H]23)[C@@]2(C)CC[C@@H](O)C[C@@H]12` [Example 93] the EC50 was less than 100 nM and the Emax was 288%.
For `CC[C@H]1[C@@H](O)[C@@H]2[C@H](CC[C@]3(C)[C@@H]([C@H](C)CCOC(=O)NS(=O)(=O)c4ccc(OC)c(F)c4)CC[C@@H]23)[C@@]2(C)CC[C@@H](O)C[C@@H]12` [Example 94], the EC50 was less than 100 nM and the Emax was 268%.
Work on `CC[C@H]1[C@@H](O)[C@@H]2[C@H](CC[C@]3(C)[C@@H]([C@H](C)CCOC(=O)NS(=O)(=O)c4cccnc4)CC[C@@H]23)[C@@]2(C)CC[C@@H](O)C[C@@H]12` [Example 95] yielded an EC50 of 1000 to 10000 nM and an Emax of 420%.
For `CCC(CC)S(=O)(=O)NC(=O)OCC[C@@H](C)[C@H]1CC[C@H]2[C@@H]3[C@H](O)[C@H](CC)[C@@H]4C[C@H](O)CC[C@]4(C)[C@H]3CC[C@]12C` [Example 96], the EC50 was less than 100 nM and the Emax was 388%.
`CC[C@H]1[C@@H](O)[C@@H]2[C@H](CC[C@]3(C)[C@@H]([C@H](C)CCOC(=O)NS(C)(=O)=O)CC[C@@H]23)[C@@]2(C)CC[C@@H](O)C[C@@H]12` [Example 97] showed an EC50 of 100 to 1000 nM and an Emax of 245%.
In the case of `CC[C@H]1[C@@H](O)[C@@H]2[C@H](CC[C@]3(C)[C@@H]([C@H](C)CCOC(=O)NS(=O)(=O)CC)CC[C@@H]23)[C@@]2(C)CC[C@@H](O)C[C@@H]12` [Example 98], the EC50 is reported as 100 to 1000 nM and the Emax is reported as 279%.
`CC[C@H]1[C@@H](O)[C@@H]2[C@H](CC[C@]3(C)[C@@H]([C@H](C)CCOC(=O)NS(=O)(=O)c4cnccn4)CC[C@@H]23)[C@@]2(C)CC[C@@H](O)C[C@@H]12` [Example 99] showed an EC50 of 1000 to 10000 nM and an Emax of 51%.
Work on `CC[C@H]1[C@@H](O)[C@@H]2[C@H](CC[C@]3(C)[C@@H]([C@H](C)CCOC(=O)NS(=O)(=O)c4ccc(OC(C)C)cc4)CC[C@@H]23)[C@@]2(C)CC[C@@H](O)C[C@@H]12` [Example 100] yielded an EC50 of less than 100 nM and an Emax of 316%.
Work on `CC[C@H]1[C@@H](O)[C@@H]2[C@H](CC[C@]3(C)[C@@H]([C@H](C)CCOC(=O)NS(=O)(=O)c4ccc(OCC(F)(F)F)cc4)CC[C@@H]23)[C@@]2(C)CC[C@@H](O)C[C@@H]12` [Example 101] yielded an EC50 of 100 to 1000 nM and an Emax of 289%.
`CC[C@H]1[C@@H](O)[C@@H]2[C@H](CC[C@]3(C)[C@@H]([C@H](C)CCOC(=O)NS(=O)(=O)c4ccc(F)c(F)c4)CC[C@@H]23)[C@@]2(C)CC[C@@H](O)C[C@@H]12` [Example 102] gave an EC50 of less than 100 nM and an Emax of 235%.
`CC[C@H]1[C@@H](O)[C@@H]2[C@H](CC[C@]3(C)[C@@H]([C@H](C)CCOC(=O)NS(=O)(=O)CC(C)(C)C)CC[C@@H]23)[C@@]2(C)CC[C@@H](O)C[C@@H]12` [Example 103] was tested, and the EC50 was less than 100 nM and the Emax was 294%.
In the case of `CC[C@H]1[C@@H](O)[C@@H]2[C@H](CC[C@]3(C)[C@@H]([C@H](C)CCOC(=O)NS(=O)(=O)C4CCCCC4)CC[C@@H]23)[C@@]2(C)CC[C@@H](O)C[C@@H]12` [Example 104-a], the EC50 is reported as less than 100 nM and the Emax is reported as 242%.
With `CC[C@H]1[C@@H](O)[C@@H]2[C@H](CC[C@]3(C)[C@@H]([C@H](C)CCOC(=O)NS(=O)(=O)c4ccc(C)cc4)CC[C@@H]23)[C@@]2(C)CC[C@@H](O)C[C@@H]12` [Example 104-b] the EC50 was less than 100 nM and the Emax was 363%.
Molecule `CC[C@H]1[C@@H](O)[C@@H]2[C@H](CC[C@]3(C)[C@@H]([C@H](C)CCOC(=O)NS(=O)(=O)c4nccs4)CC[C@@H]23)[C@@]2(C)CC[C@@H](O)C[C@@H]12` [Example 104-c] has an EC50 of 1000 to 10000 nM and an Emax of 34%.
Molecule `CC[C@H]1[C@@H](O)[C@@H]2[C@H](CC[C@]3(C)[C@@H]([C@H](C)CCOC(=O)NS(=O)(=O)c4ncccn4)CC[C@@H]23)[C@@]2(C)CC[C@@H](O)C[C@@H]12` [Example 104-d] has an EC50 of 1000 to 10000 nM and an Emax of 35%.
Molecule `CC[C@H]1[C@@H](O)[C@@H]2[C@H](CC[C@]3(C)[C@@H]([C@H](C)CCOC(=O)N4CCCCS4(=O)=O)CC[C@@H]23)[C@@]2(C)CC[C@@H](O)C[C@@H]12` [Example 104-e] has an EC50 of 100 to 1000 nM and an Emax of 239%.
`CC[C@H]1[C@@H](O)[C@@H]2[C@H](CC[C@]3(C)[C@@H]([C@H](C)CCOC(=O)NS(=O)(=O)c4ccc5ccsc5c4)CC[C@@H]23)[C@@]2(C)CC[C@@H](O)C[C@@H]12` [Example 104-f] was tested, and the EC50 was less than 100 nM and the Emax was 213%.
`CC[C@H]1[C@@H](O)[C@@H]2[C@H](CC[C@]3(C)[C@@H]([C@H](C)CCOC(=O)NS(=O)(=O)N4CC(C)(C)C4)CC[C@@H]23)[C@@]2(C)CC[C@@H](O)C[C@@H]12` [Example 104-g] was tested, and the EC50 was less than 100 nM and the Emax was 289%.
`CC[C@H]1[C@@H](O)[C@@H]2[C@H](CC[C@]3(C)[C@@H]([C@H](C)CCOC(=O)NS(=O)(=O)c4cc(C(F)(F)F)cc(C(F)(F)F)c4)CC[C@@H]23)[C@@]2(C)CC[C@@H](O)C[C@@H]12` [Example 104-h] was tested, and the EC50 was 1000 to 10000 nM and the Emax was 208%.
Molecule `CC[C@H]1[C@@H](O)[C@@H]2[C@H](CC[C@]3(C)[C@@H]([C@H](C)CCOC(=O)NS(=O)(=O)C4CCC4)CC[C@@H]23)[C@@]2(C)CC[C@@H](O)C[C@@H]12` [Example 104-i] has an EC50 of less than 100 nM and an Emax of 314%.
`CC[C@H]1[C@@H](O)[C@@H]2[C@H](CC[C@]3(C)[C@@H]([C@H](C)CCOC(=O)NS(=O)(=O)N4CC(F)(F)C4)CC[C@@H]23)[C@@]2(C)CC[C@@H](O)C[C@@H]12` [Example 104-j] was tested, and the EC50 was less than 100 nM and the Emax was 327%.
